Experimental data reported in patent US20260258172A1, “CATIONIC POLYMERS WITH SELECTIVE ANTIFUNGAL PROPERTIES” (Uniwersytet Jagiellonski, priority 2022, published 2026).
In brackets after ≈: the same amount, converted by molar mass.

Key:
Assay type in all cases: cell-based
[1] = tested on: 3T3-L1 murine embryonic fibroblast line; test: Neutral red uptake toxicity test, 3T3-L1 fibroblasts; conditions: medium with serum
Experimental: Preliminary tests were conducted in the 3T3-L1 murine embryonic fibroblast line (ATCC, CL-173™), an immortalized line (highly tolerant cells). DMEM was used as the medium. 24 h after seeding and successful adhesion, polymers dissolved in the medium were added to the cells (the medium was first replaced with a serum-free medium in serum-free experiments), and viable cells were quantified after another 24 h using the neutral red uptake assay.
The toxicity of ciclopirox and terbinafine, two commercially used antifungal drugs, was evaluated in similar conditions (the same cell line, medium composition and exposure time).

[2] = tested on: Aspergillus brasiliensis ATCC 16404; test: Antifungal microdilution MIC test; conditions: comparative test; for MIC: Aspergillus brasiliensis, ATCC16404
Experimental: (§1) In vitro tests of the antifungal activity of the polymers were performed with respect to selected fungal species obtained from international culture collections and the microorganism collection in the Department of Infection Control and Mycology, Chair of Microbiology, Jagiellonian University Medical College. The test was performed using the microdilution method in a liquid medium on flat-bottomed, 96-well polypropylene titration plates. The applied methodology was based on antifungal susceptibility testing procedures developed by the European Committee on Antimicrobial Susceptibility Testing (EUCAST) and on the Hancock Lab procedure for antimicrobial cationic peptides.
(§2) The test compounds were dissolved in sterile distilled water and starting concentrations of 5 g/L were prepared, from which a series of two-fold dilutions in water were obtained. Respective polymer dilutions were transferred in a volume of 20 μL on titration plates (wells 1-10). 20 μL of sterile distilled water was transferred to each of wells 11 and 12. Wells 1-11 were inoculated with fungi in a volume of 180 μL of fungal cell suspensions in a liquid medium, and 180 μL of the sterile medium was transferred to well 12. Fungal suspensions were prepared from fresh cultures on agar media by collecting spores using a sterile swab into sterile distilled water or sterile distilled water with Tween-20 added. Suspensions of certain strains were filtered to remove any hyphal elements (filters with a pore diameter of 20 μm and 10 μm were used). The suspensions were brought to a density of 0.5 on the McFarland scale, and subsequently diluted to 1:20 in a liquid RPMI-1640 medium with L-glutamine and without sodium bicarbonate, supplemented with glucose (2%) and buffered morpholinopropanesulfonic acid (MOPS) (0.165 mol/L).
(§3) Final polymer concentrations on plates after adding fungal suspensions in the liquid medium were 0.49-250 mg/L or 0.98-500 mg/L.
(§4) Incubation was performed at room temperature, 27° C., 37° C., depending on the fungal species, until fungal growth was obtained in growth control (well 11). After the incubation period, fungal growth was evaluated visually and the lowest polymer concentrations that caused complete fungal growth inhibition (MIC (minimal inhibitory concentration) values) were determined.
(§5) A test was performed on selected fungal strains to compare MIC values of the PMAPTAC133 polymer with the MIC values of two known antifungal drugs (terbinafine and ciclopirox), used in the treatment of fungal infections of glabrous skin, hairy skin and nails.
(§6) The procedure described in the section above (Example 8) was used in the testing.
(§7) The drugs were dissolved in dimethyl sulfoxide (DMSO) and starting concentrations of 4 g/L were prepared, from which series of two-fold dilutions in DMSO were obtained. Respective […] concentrations were diluted to 1:100 in sterile water and subsequently transferred to wells 1-10 on a titration plate in a volume of 20 μL. Wells 11 and 12 were filled up with 20 μL DMSO diluted to 1:10 in water. Wells 1-11 were inoculated with fungi in a volume of 180 μL of fungal cell suspensions in a liquid medium, and […] of the sterile medium was transferred to well 12. Final drug concentrations on plates after adding fungal suspensions in the liquid medium were 0.008-4 mg/L.

[3] = tested on: Aspergillus flavus ATCC 204304; test: Antifungal microdilution MIC test; conditions: comparative test; for MIC: Aspergillus flavus, ATCC204304
Experimental: as §1, §2, §3, §4, §5, §6, §7

[4] = tested on: Aspergillus fumigatus DSM 819; test: Antifungal microdilution MIC test; conditions: comparative test; for MIC: Aspergillus fumigatus, DSM819
Experimental: as §1, §2, §3, §4, §5, §6, §7

[5] = tested on: Aspergillus fumigatus SU 56; test: Antifungal microdilution MIC test; conditions: comparative test; for MIC: Aspergillus fumigatus, SU56
Experimental: as §1, §2, §3, §4, §5, §6, §7

[6] = tested on: Aspergillus terreus DSM 1958; test: Antifungal microdilution MIC test; conditions: comparative test; for MIC: Aspergillus terreus, DSM1958
Experimental: as §1, §2, §3, §4, §5, §6, §7

[7] = tested on: Candida albicans ATCC 90028; test: Antifungal microdilution MIC test; conditions: ATCC90028, comparative test
Experimental: as §1, §2, §3, §4, §5, §6, §7

[8] = tested on: Cryptococcus neoformans; test: Antifungal microdilution MIC test; conditions: Cryptococcus neoformans, comparative test
Experimental: as §1, §2, §3, §4, §5, §6, §7

[9] = tested on: Fusarium solani strain 155; test: Antifungal microdilution MIC test; conditions: comparative test
Experimental: as §1, §2, §3, §4, §5, §6, §7

[10] = tested on: Scopulariopsis brevicaulis 34; test: Antifungal microdilution MIC test; conditions: comparative test
Experimental: as §1, §2, §3, §4, §5, §6, §7

[11] = tested on: Scopulariopsis brevicaulis DSM 9122; test: Antifungal microdilution MIC test; conditions: DSM9122, comparative test
Experimental: as §1, §2, §3, §4, §5, §6, §7

[12] = tested on: Trichophyton interdigitale 251; test: Antifungal microdilution MIC test; conditions: comparative test, incubation time 72 h
Experimental: as §1, §2, §3, §4, §5, §6, §7

[13] = tested on: Trichophyton interdigitale D182; test: Antifungal microdilution MIC test; conditions: comparative test
Experimental: as §1, §2, §3, §4, §5, §6, §7

[14] = tested on: Trichophyton interdigitale DSM4167; test: Antifungal microdilution MIC test; conditions: comparative test
Experimental: as §1, §2, §3, §4, §5, §6, §7

[15] = tested on: Trichophyton mentagrophytes ATCC 18484; test: Antifungal microdilution MIC test; conditions: comparative test; for MIC: Trichophyton mentagrophytes, ATCC18484
Experimental: as §1, §2, §3, §4, §5, §6, §7

[16] = tested on: Trichophyton rubrum D197; test: Antifungal microdilution MIC test; conditions: comparative test
Experimental: as §1, §2, §3, §4, §5, §6, §7

[17] = tested on: Trichophyton rubrum D320; test: Antifungal microdilution MIC test; conditions: comparative test
Experimental: as §1, §2, §3, §4, §5, §6, §7

[18] = tested on: Trichophyton rubrum DSM 16111; test: Antifungal microdilution MIC test; conditions: DSM16111, comparative test
Experimental: as §1, §2, §3, §4, §5, §6, §7

[19] = tested on: Trichophyton tonsurans 264; test: Antifungal microdilution MIC test; conditions: comparative test
Experimental: as §1, §2, §3, §4, §5, §6, §7

[20] = tested on: Trichophyton tonsurans DSM 12285; test: Antifungal microdilution MIC test; conditions: DSM12285, comparative test
Experimental: as §1, §2, §3, §4, §5, §6, §7

[21] = tested on: Candida glabrata ATCC 15545; test: Antifungal microdilution MIC test; conditions: Nakaseomyces glabratus, ATCC15545, comparative test
Experimental: as §1, §2, §3
as §4, with “determined. […]” for “determined.”

[22] = tested on: Candida krusei ATCC 6258; test: Antifungal microdilution MIC test; conditions: Pichia kudriavzevii, ATCC6258, comparative test
Experimental: as §1, §2, §3
as §4, with “determined. […]” for “determined.”

[23] = tested on: Fusarium oxysporum 109; test: Antifungal microdilution MIC test; conditions: comparative test
Experimental: as §1, §2, §3
as §4, with “determined. […]” for “determined.”

[24] = tested on: Fusarium oxysporum DSM 841; test: Antifungal microdilution MIC test; conditions: DSM841, comparative test
Experimental: as §1, §2, §3
as §4, with “determined. […]” for “determined.”

[25] = tested on: Fusarium solani DSM 1164; test: Antifungal microdilution MIC test; conditions: DSM1164, comparative test
Experimental: as §1, §2, §3
as §4, with “determined. […]” for “determined.”

For CN(C/C=C/C#CC(C)(C)C)Cc1cccc2ccccc12 [Terbinafine, terbinafine], the “concentration at which the number of viable cells decreased to less than 50%” value ([1]; 24 h exposure) was 25000 ng/mL, the viable cells ([1]; concentrations of 50, 75 and 100 μg/mL, 24 h) was at most 10% and the MIC ([2]; incubation time 24 h) was 2 µg/mL (≈ 6.86 µM). The MIC ([2]; incubation time 48 h) was over 4 µg/mL, the “concentration with (clear) growth suppression” value ([2]; incubation time 48 h) was 2 mg/L and the MIC ([3]; incubation time 24 h) was 4 µg/mL (≈ 13.7 µM). For the same molecule, the MIC ([3]; incubation time 48 h) was over 4 µg/mL, the “concentration with growth suppression” value ([3]; incubation time 48 h) was 2 mg/L and the MIC ([4]; incubation time 24 h) was over 4 µg/mL. For the same molecule, the MIC ([4]; incubation time 48 h) was over 4 µg/mL, the “concentration with growth suppression” value ([4]; incubation time 24 h) was 2 mg/L and the MIC ([5]; incubation time 24 h) was 4 µg/mL (≈ 13.7 µM). For the same molecule, the MIC ([5]; incubation time 48 h) was over 4 µg/mL, the “concentration with growth suppression” value ([5]; incubation time 48 h) was over 4 mg/L and the MIC ([6]; incubation time 24 h) was 2 µg/mL (≈ 6.86 µM). The MIC ([6]; incubation time 48 h) was over 4 µg/mL, the “concentration with growth suppression” value ([6]; incubation time 48 h) was 2 mg/L and the MIC ([7]; incubation time 24 h) was over 4 µg/mL. It also gave an MIC ([7]; incubation time 48 h) of over 4 µg/mL, an MIC ([8]; incubation time 24 h) of over 4 µg/mL and an MIC ([8]; incubation time 48 h) of over 4 µg/mL. It also gave an MIC ([9]; incubation time 24 h) of over 4 µg/mL, an MIC ([9]; incubation time 48 h) of over 4 µg/mL and an MIC ([10]; incubation time 24 h) of over 4 µg/mL. It also gave an MIC ([10]; incubation time 48 h) of over 4 µg/mL, an MIC ([11]; incubation time 24 h) of over 4 µg/mL and an MIC ([11]; incubation time 48 h) of over 4 µg/mL. The MIC [12] was 1 µg/mL (≈ 3.43 µM), the MIC ([13]; incubation time 48 h) was 0.25 µg/mL (≈ 0.858 µM) and the MIC ([13]; incubation time 72 h) was 0.5 µg/mL (≈ 1.72 µM). For the same molecule, the MIC ([14]; incubation time 48 h) was 0.25 µg/mL (≈ 0.858 µM), the MIC ([14]; incubation time 72 h) was 0.25 µg/mL (≈ 0.858 µM) and the MIC ([15]; incubation time 24 h) was 0.125 µg/mL (≈ 0.429 µM). The MIC ([15]; incubation time 48 h) was 0.5 µg/mL (≈ 1.72 µM), the MIC ([15]; incubation time 72 h) was 1 µg/mL (≈ 3.43 µM) and the “concentration with marginal growth” value ([15]; incubation time 48 h) was 0.25 mg/L. The MIC ([16]; incubation time 48 h) was 0.125 µg/mL (≈ 0.429 µM), the MIC ([16]; incubation time 72 h) was 0.25 µg/mL (≈ 0.858 µM) and the MIC ([17]; incubation time 48 h) was 0.125 µg/mL (≈ 0.429 µM). For the same molecule, the MIC ([17]; incubation time 72 h) was 2 µg/mL (≈ 6.86 µM), the MIC ([18]; incubation time 24 h) was 0.06 µg/mL (≈ 0.206 µM) and the MIC ([18]; incubation time 48 h) was 0.25 µg/mL (≈ 0.858 µM). For the same molecule, the MIC ([18]; incubation time 72 h) was 0.25 µg/mL (≈ 0.858 µM), the MIC ([19]; incubation time 48 h) was 0.5 µg/mL (≈ 1.72 µM) and the MIC ([19]; incubation time 72 h) was 0.5 µg/mL (≈ 1.72 µM). It also gave an MIC ([20]; incubation time 48 h) of 0.25 µg/mL (≈ 0.858 µM), an MIC ([20]; incubation time 72 h) of 0.25 µg/mL (≈ 0.858 µM) and an MIC ([21]; incubation time 24 h) of over 4 µg/mL. It also gave an MIC ([21]; incubation time 48 h) of over 4 µg/mL, an MIC ([22]; incubation time 24 h) of over 4 µg/mL and an MIC ([22]; incubation time 48 h) of over 4 µg/mL. The MIC ([23]; incubation time 24 h) was over 4 µg/mL, the MIC ([23]; incubation time 48 h) was over 4 µg/mL and the MIC ([24]; incubation time 24 h) was over 4 µg/mL. For the same molecule, the MIC ([24]; incubation time 48 h) was over 4 µg/mL, the MIC ([25]; incubation time 24 h) was over 4 µg/mL and the MIC ([25]; incubation time 48 h) was over 4 µg/mL.
